Reference: patent publication US20120295920A1, “5-AMINO-4-HYDROXYPENTOYL AMIDES” (priority 2009, published 2012)
pEC50: −log10 of the molar value. Where two headings read alike, the source gives them in different places.

What was measured:
HIV-1 wild-type strain = test: General antiviral assay, cell-based virus replication in MT4-LTR-EGFP cells, wild-type strain; details: wild-type strain IIIB, MT4-LTR-EGFP cells
Method: (§1) MT4-LTR-EGFP cells were obtained by transfecting MT4 cells with a selectable construct encompassing the sequences coding for the HIV long terminal repeat (LTR) as a promoter for the expression of enhanced green fluorescent protein (EGFP) and subsequent selection of permanently transfected cells.
(§2) The antiviral activity on different HIV-1 strains, was determined in a cell-based virus replication assay. Here MT4-LTR-EGFP cells (150,000 cells/ml) are infected (multiplicity of infection [MOI] of 0.0025) in the presence or absence of different inhibitor concentrations. Two methodologies for read-out were used, either quantification of GFP-fluoresence on day 3 post-infection, or quantification of cell-viability using rezazurin (as described by Fields, R. D., and M. V. Lancaster (1993) Am. Biotechnol. Lab. 11:48-50) on day 4 post infection.

[1] = tested on: HIV-1 Strain A (M046I, I084V); test: microbe, parasite or virus in culture; format: cell-based; details: clinical isolate Strain A; read-out: A EC50
Method: as §1, §2
(§3) In the following Table, Strains A, B, and C are clinical isolates that include the following protease inhibitor resistance mutations in the protease domain (background mutations are not mentioned).

[2] = tested on: HIV-1 Strain B (M046I, I050V); test: microbe, parasite or virus in culture; format: cell-based; details: clinical isolate Strain B; read-out: B EC50
Method: as §1, §2, §3

[3] = tested on: HIV-1 Strain C (G048G/V, V082A); test: microbe, parasite or virus in culture; format: cell-based; details: clinical isolate Strain C; read-out: C EC50
Method: as §1, §2, §3

mock-infected MT4 cells = test: General toxicity assay on mock-infected MT4 cells with CMV-EGFP reporter (CC50); format: cell-based
HIV-1 IIIB = test: 50% HS-Rezazurin: antiviral assay in the presence of 50% human serum, MT-4 cells, resazurin cell viability; format: cell-based
Method: For the Antiviral assay in the presence of 50% human serum MT-4 cells were infected with HIV-1 IIIB at a MOI of 0.001 to 0.01 CCID50/cell in RPMI1640 medium. Following 1 h of incubation, cells were washed and plated into a 96-well plate containing serial dilutions of compound in the presence of 10% fetal calf serum (FCS), or 50% human serum. After 4 days incubation, the EC50 in the presence of 50% human serum was determined by a cell viability assay using resazurin.
The last column lists the results for the wild-type strain IIB in the presence of 50% human serum MT-4 cells.

[4] = MT4LTR cells, read-out: TOX-MT4LTR (CC50)
[5] = mock-infected MT4 cells with CMV-EGFP reporter, read-out: TOX-MT4CMV (CC50)

SMILES	pEC50 (HIV-1 wild-type strain)	pEC50 [1]	pEC50 [2]	pEC50 [3]	CC50 (mock-infected MT4 cells; [4]) [nM]	pEC50 (HIV-1 IIIB)	CC50 (mock-infected MT4 cells; [5]) [nM]
COc1ccc(-c2ccc(C[C@H](NC(=O)O[C@H]3CO[C@H]4OCC[C@H]43)[C@@H](O)C[C@@H](Cc3ccccc3F)C(=O)N[C@H]3c4ccsc4CC[C@H]3O)cc2)cn1 [Compound 74]	9.05	9.10	9.22	9.40	> 32000	8.46	–
COC(=O)N[C@H](C(=O)N[C@@H](Cc1ccc(-c2cnc(C)s2)cc1)[C@@H](O)C[C@@H](Cc1ccccc1F)C(=O)N[C@H]1[C@H](C)CC[C@H]1O)C(C)(C)C [Compound 83]	8.40	8.08	8.60	8.57	–	7.84	> 32000
COC(=O)N[C@H](C(=O)N[C@@H](Cc1ccc(-c2cc(C)nc(C)c2)cc1)[C@@H](O)C[C@@H](Cc1ccccc1F)C(=O)N[C@H]1c2cccc(Cl)c2OC[C@H]1O)C(C)(C)C [Compound 54]	8.32	8.57	8.68	8.80	> 32000	7.70	–
COC(=O)NC(C(=O)NC(Cc1ccc(-c2ccc(OC)nc2)cc1)C(O)CC(Cc1cccc(OC)c1)C(=O)NC1c2ccccc2OCC1O)C(C)(C)C (stereo not shown) [Compound 17]	8.72	8.70	8.92	8.96	–	8.19	> 32000
COc1cccc(C[C@H](C[C@H](O)[C@H](Cc2ccc(-c3csc(N(C)C)n3)cc2)NC(=O)O[C@H]2CO[C@H]3OCC[C@H]32)C(=O)N[C@H]2c3cc(Cl)ccc3OC[C@H]2O)c1 [Compound 71]	8.68	8.66	8.64	9.00	> 32000	7.96	> 32000
COc1ccc(-c2ccc(C[C@H](NC(=O)[C@@H](NC(=O)C3(C#N)CC3)C(C)(C)C)[C@@H](O)C[C@@H](Cc3ccccc3F)C(=O)N[C@H]3c4cc(Cl)ccc4OC[C@H]3O)cc2)cn1 [Compound 47]	8.49	7.95	8.17	8.26	> 32000	7.98	–
COC(=O)NC(C(=O)NC(Cc1ccc(-c2ccc(N(C)C)nc2)cc1)C(O)CC(Cc1cccc(OC)c1)C(=O)NC1c2ccccc2OCC1O)C(C)(C)C (stereo not shown) [Compound 15]	8.70	8.68	8.92	8.89	–	8.06	> 32000
COc1ccc(-c2ccc(C[C@H](NC(=O)O[C@H]3CO[C@H]4OCC[C@H]43)[C@@H](O)C[C@@H](Cc3ccccc3Cl)C(=O)N[C@H]3c4cc(F)ccc4OC[C@H]3O)cc2)cn1 [Compound 77]	8.72	8.80	9.00	9.15	> 32000	8.19	–
COC(=O)N[C@H](C(=O)N[C@@H](Cc1ccc(-c2ccc(OC)nc2)cc1)[C@@H](O)C[C@@H](Cc1ccccc1F)C(=O)N[C@H]1c2cc(F)cc(Cl)c2OC[C@H]1O)C(C)(C)C [Compound 56]	8.59	8.85	8.92	9.15	> 32000	8.08	–
COC(=O)N[C@H](C(=O)N[C@@H](Cc1ccc(-c2ccc(OC)nc2)cc1)[C@@H](O)C[C@@H](Cc1ccccc1Cl)C(=O)N[C@H]1c2ccccc2OC[C@H]1O)C(C)(C)C [Compound 37]	8.77	8.60	9.05	9.10	> 32000	8.34	> 32000
COc1ccc(-c2ccc(CC(NC(=O)C(NC(=O)CN3CCCC3)C(C)(C)C)C(O)CC(Cc3ccccc3F)C(=O)NC3C(C)CCCC3O)cc2)cn1 (stereo not shown) [Compound 97]	8.25	8.33	8.55	8.70	> 32000	7.90	–
COC(=O)N[C@H](C(=O)N[C@@H](Cc1ccc(-c2cccc(OC)n2)cc1)[C@@H](O)C[C@@H](Cc1ccccc1F)C(=O)N[C@H]1c2cc(Cl)ccc2OC[C@H]1O)C(C)(C)C [Compound 30]	8.40	8.23	8.55	8.60	–	7.76	> 32000
COc1ccc(-c2ccc(C[C@H](NC(=O)O[C@H]3CO[C@H]4OCC[C@H]43)[C@@H](O)C[C@@H](Cc3ccccc3F)C(=O)N[C@H]3c4cccc(Cl)c4OC[C@H]3O)cc2)cn1 [Compound 75]	8.62	8.85	9.05	9.10	> 32000	8.03	–
COc1ccc(-c2ccc(C[C@H](NC(=O)O[C@H]3CO[C@H]4OCC[C@H]43)[C@@H](O)C[C@@H](Cc3ccccc3F)C(=O)N[C@H]3c4cc(Cl)ccc4OC[C@H]3O)cc2)cn1 [Compound 72]	8.82	9.10	9.10	9.30	> 32000	8.24	–
COCCNC(=O)[C@@H](NC(=O)[C@H](Cc1ccccc1Cl)C[C@H](O)[C@H](Cc1ccc(-c2ccc(OC)nc2)cc1)NC(=O)[C@@H](NC(=O)OC)C(C)(C)C)C(C)(C)C [Compound 98]	8.68	8.43	9.00	8.66	> 32000	7.95	–
COC(=O)NC(C(=O)NC(Cc1ccc(-c2ccc(N(C)C)nc2)cc1)C(O)CC(Cc1ccccc1F)C(=O)NC1c2cc(Cl)ccc2OCC1O)C(C)(C)C (stereo not shown) [Compound 8]	8.74	8.70	8.92	9.00	> 49000	7.91	> 32000
COC(=O)N[C@H](C(=O)N[C@@H](Cc1ccc(-c2ccc(OC)nc2)cc1)[C@@H](O)C[C@@H](Cc1ccccc1F)C(=O)N[C@H]1c2cccc(F)c2OC[C@H]1O)C(C)(C)C [Compound 50]	8.55	8.70	8.85	8.96	> 32000	8.16	–
COC(=O)N[C@H](C(=O)N[C@@H](Cc1ccc(-c2ccc(OC)nc2)cc1)[C@@H](O)C[C@@H](Cc1cccc(OC(F)(F)F)c1)C(=O)N[C@H]1[C@H](C)CCC[C@H]1O)C(C)(C)C [Compound 94]	9.05	8.72	9.10	8.85	> 32000	8.15	–
COC(=O)NC(C(=O)NC(Cc1ccc(-c2ccc(OC)nc2)cc1)C(O)CC(Cc1ccccc1F)C(=O)NC1c2cc(Cl)ccc2OCC1O)C(C)(C)C (stereo not shown) [Compound 18]	8.57	8.52	8.70	8.80	> 32000	7.85	> 32000
COC(=O)N[C@H](C(=O)N[C@@H](Cc1ccc(-c2ccc(OC)nc2)cc1)[C@@H](O)C[C@@H](Cc1cccc(OC(F)(F)F)c1)C(=O)N[C@H]1c2cc(Cl)ccc2OC[C@H]1O)C(C)(C)C [Compound 42]	8.38	8.14	8.39	8.41	> 32000	7.63	> 32000
COC(=O)N[C@H](C(=O)N[C@@H](Cc1ccc(-c2cnc(OC)nc2)cc1)[C@@H](O)C[C@@H](Cc1cccc(F)c1)C(=O)N[C@H]1c2cc(F)ccc2OC[C@H]1O)C(C)(C)C [Compound 65]	8.04	8.35	8.44	8.64	> 32000	7.61	–
COC(=O)N[C@H](C(=O)N[C@@H](Cc1ccc(-c2cnc(C3CC3)s2)cc1)[C@@H](O)C[C@@H](Cc1ccccc1F)C(=O)N[C@H]1c2cc(Cl)ccc2OC[C@H]1O)C(C)(C)C [Compound 28]	8.49	8.51	8.68	8.85	–	7.65	> 32000
COC(=O)N[C@H](C(=O)N[C@@H](Cc1ccc(-c2ccc(OC)nc2)cc1)[C@@H](O)C[C@@H](Cc1ccccc1Cl)C(=O)N[C@H]1c2cc(F)ccc2OC[C@H]1O)C(C)(C)C [Compound 67]	8.54	8.68	8.92	9.00	> 32000	8.28	> 32000
COC(=O)N[C@H](C(=O)N[C@@H](Cc1ccc(-c2ccc(OC)nc2)cc1)[C@@H](O)C[C@@H](Cc1cccc(F)c1)C(=O)N[C@H]1c2ccc(F)cc2OC[C@H]1O)C(C)(C)C [Compound 85]	8.54	8.52	8.89	8.96	> 32000	7.76	> 32000
